Measurements: patent US20130095059A1, “INHALED NO DONOR KMUPS DERIVATIVE PREVENTING ALLERGIC PULMONARY VASCULAR AND BRONCHIAL INFLAMMATION VIA SUPPRESSED CYTOKINES, INOS AND INFLAMMATORY CELL COUNTS IN ASTHMA MODEL” (priority 2007, published 2013)

System: ROCK
Assay: 5-HT-induced ROCK expression in PASMCs
Format: cell-based, Wistar rats
Conditions: 10 μM
Method: PASMCs were stimulated with 5-HT or not, as indicated. Cells were treated with KMUP-1 for 24 h before 5-HT stimulation. Whole lysates were collected and resolved by SDS-PAGE as previously described. Primary antibodies were anti-β-actin at: 1:10,000 dilution and anti-RhoA, anti-ROCK, antiphospho-ERK1/2, anti-phospho-AKT, anti-ERK1/2, anti-AKT, anti-5HTT, anti-5-HT2B and anti-eNOS at 1:1000. All blots were incubated with antibodies at 4° C. overnight. After being washed, the appropriate secondary antibodies were added at a dilution of 1:1000 for 1 h at room temperature. After extensive washing, blots were developed with a Super Signal enhanced chemiluminescence kit (Biorad, CA, USA) and visualized on Kodak AR film.
The expression of RhoA/ROCK and phosphorylation of ERK1/2 and AKT kinase in PASMCs were assessed by incubating the PASMCs with 5-HT (10 μM) for 15 min (peak time for RhoA/ROCK, ERK1/2 and AKT phosphorylation) and 5-HTT for 10 min (peak time for 5-HTT) after KMUP-1 (1-100 μM) was added to the culture of PASMCs for 24 h.

C[C@@H](N)[C@H]1CC[C@H](C(=O)Nc2ccncc2)CC1 [Y27632, reference compound]
ROCK expression: inhibited
